From ChEMBL document CHEMBL3045949, “Antifeedant and toxic effects of naturally occurring and synthetic quinones to the cabbage looper, Trichoplusia ni” (Crop Prot, 2012)

How the values were obtained:
Trichoplusia ni [1] = experiment: Toxicity against Trichoplusia ni (cabbage looper) third-instar larvae stage assessed as mortality at 10 ug/ml for 24 hr by topical application; assay type: functional
Trichoplusia ni [2] = experiment: Antifeedant activity against Trichoplusia ni (cabbage looper) third-instar larvae stage assessed as feeding deterrence index at 50 microg/cm'2 by feeding deterrent bioassay; assay type: functional
Trichoplusia ni [3] = experiment: Antifeedant activity against Trichoplusia ni (cabbage looper) third-instar larvae stage assessed as concentrations causing 50% feeding deterrence by feeding deterrent bioassay; assay type: functional, organism-based
Trichoplusia ni [4] = experiment: Protection of intact cabbage plants from Trichoplusia ni (cabbage looper) measured as reduction in weight of larvae by lopper in green house for 10 days (reference value: 33.8 mg); assay type: functional
Trichoplusia ni [5] = experiment: Protection of intact cabbage plants from Trichoplusia ni (cabbage looper) measured as leaf area consumed by lopper in green house for 10 days (reference value: 8.5 cm'2); assay type: functional

**Q.** Which mortality at 10 µg/mL (Trichoplusia ni [1]) does the source give for `O=C1c2cccc(O)c2C(=O)c2cccc(O)c21` [ANTHRARUFIN] here?
**A.** 15%

**Q.** And the FDI (Trichoplusia ni [2])?
**A.** -58.6%

**Q.** How did the mortality at 10 µg/mL (Trichoplusia ni [1]) turn out when `O=C1C(=O)c2ccccc2-c2ccccc21` [9,10-PHENANTHRENEQUINONE] was run?
**A.** 10%

**Q.** What about the FDI (Trichoplusia ni [2]) of the same compound?
**A.** -15.4%

**Q.** How did the mortality at 10 µg/mL (Trichoplusia ni [1]) turn out when `O=C1C(Cl)=C(N2CCOCC2)C(=O)c2ccccc21` [2-Chloro-3-morpholino-1,4-naphthoquinone] was run?
**A.** 12%

**Q.** What about the FDI (Trichoplusia ni [2]) of the same compound?
**A.** 100%

**Q.** What about the DC50 (Trichoplusia ni [3]) of the same compound?
**A.** 9.7 microg/cm2

**Q.** For `O=C1C=CC(=O)c2c(O)ccc(O)c21` [NAPHTHAZALIN], which mortality at 10 µg/mL (Trichoplusia ni [1]) is on record?
**A.** 20%

**Q.** What about the FDI (Trichoplusia ni [2]) of the same compound?
**A.** 100%

**Q.** And the DC50 (Trichoplusia ni [3])?
**A.** 10.1 microg/cm2

**Q.** Which mortality at 10 µg/mL (Trichoplusia ni [1]) does the source give for `COC1=C(OC)C(=O)C(C)=CC1=O` [Ubiquinone Qo] here?
**A.** 23.3%

**Q.** And the FDI (Trichoplusia ni [2])?
**A.** 86.7%

**Q.** And the DC50 (Trichoplusia ni [3])?
**A.** 4.2 microg/cm2

**Q.** How did the mortality at 10 µg/mL (Trichoplusia ni [1]) turn out when `O=C1C=C(Br)C(=O)c2ccccc21` [2-Bromo-1,4-naphthoquinone] was run?
**A.** 15%

**Q.** And the FDI (Trichoplusia ni [2])?
**A.** 80.7%

**Q.** And the DC50 (Trichoplusia ni [3])?
**A.** 8.4 microg/cm2

**Q.** How did the mortality at 10 µg/mL (Trichoplusia ni [1]) turn out when `CC1=CC(=O)C(C(C)C)=CC1=O` [THYMOQUINONE] was run?
**A.** 26.7%

**Q.** What about the FDI (Trichoplusia ni [2]) of the same compound?
**A.** 100%

**Q.** And the DC50 (Trichoplusia ni [3])?
**A.** 19.3 microg/cm2

**Q.** With `CC1=C(Br)C(=O)C(C(C)C)=C(Br)C1=O` [Dibromothymoquinone] as the compound, how does the mortality at 10 µg/mL (Trichoplusia ni [1]) read?
**A.** 5%

**Q.** And the FDI (Trichoplusia ni [2])?
**A.** 42.2%

**Q.** For `O=C1C=CC(=O)C=C1` [BENZOQUINONE], which FDI (Trichoplusia ni [2]) is on record?
**A.** 17.8%

**Q.** Which results are given for `CC1=CC(=O)c2c(O)cccc2C1=O` [PLUMBAGIN]?
**A.** mortality at 10 µg/mL (Trichoplusia ni [1]): 7%; FDI (Trichoplusia ni [2]): 100%; Activity (Trichoplusia ni [4]): 12.7 mg; DC50 (Trichoplusia ni [3]): 3.3 microg/cm2; Activity (Trichoplusia ni [5]): 3.5 cm2

**Q.** With `O=C1c2ccccc2C(=O)c2c(O)cccc21` [1-HYDROXYANTHRAQUINONE] as the compound, how does the mortality at 10 µg/mL (Trichoplusia ni [1]) read?
**A.** 10%

**Q.** What about the FDI (Trichoplusia ni [2]) of the same compound?
**A.** -41.5%

**Q.** With `CC(C)=CCC1=C(O)C(=O)c2ccccc2C1=O` [LAPACHOL] as the compound, how does the mortality at 10 µg/mL (Trichoplusia ni [1]) read?
**A.** 10%

**Q.** And the FDI (Trichoplusia ni [2])?
**A.** 9.1%

**Q.** For `CC1=CC(=O)c2ccccc2C1=O` [MENADIONE], which mortality at 10 µg/mL (Trichoplusia ni [1]) is on record?
**A.** 13%

**Q.** And the FDI (Trichoplusia ni [2])?
**A.** 100%

**Q.** What about the DC50 (Trichoplusia ni [3]) of the same compound?
**A.** 6.3 microg/cm2

**Q.** `O=C1c2cccc(O)c2C(=O)c2c(O)cccc21` [DANTHRON] was tested. Which mortality at 10 µg/mL (Trichoplusia ni [1]) did it give?
**A.** 12%

**Q.** And the FDI (Trichoplusia ni [2])?
**A.** 86.2%

**Q.** What about the DC50 (Trichoplusia ni [3]) of the same compound?
**A.** 9.2 microg/cm2

**Q.** What does the source list for `COC1=CC(=O)c2ccccc2C1=O` [2-Methoxy-1,4-naphthoquinone]?
**A.** mortality at 10 µg/mL (Trichoplusia ni [1]): 8%; FDI (Trichoplusia ni [2]): 96.8%; DC50 (Trichoplusia ni [3]): 2.6 microg/cm2

**Q.** How did the mortality at 10 µg/mL (Trichoplusia ni [1]) turn out when `O=C1C=Cc2ccccc2C1=O` [1,2-NAPHTHOQUINONE] was run?
**A.** 3.3%

**Q.** And the FDI (Trichoplusia ni [2])?
**A.** 100%

**Q.** What about the DC50 (Trichoplusia ni [3]) of the same compound?
**A.** 1.8 microg/cm2

**Q.** With `Cc1cc(O)c2c(c1)C(=O)c1cc(O)cc(O)c1C2=O` [EMODIN] as the compound, how does the mortality at 10 µg/mL (Trichoplusia ni [1]) read?
**A.** 10%

**Q.** And the FDI (Trichoplusia ni [2])?
**A.** 22.1%

**Q.** What does the source list for `O=C1C(Cl)=C(Cl)C(=O)C(Cl)=C1Cl` [CHLORANIL]?
**A.** mortality at 10 µg/mL (Trichoplusia ni [1]): 10%; FDI (Trichoplusia ni [2]): 35.8%

**Q.** Which mortality at 10 µg/mL (Trichoplusia ni [1]) does the source give for `c1ccc2c(c1)ccc1cccnc12` [1-NAPHTHOQUINOLINE] here?
**A.** 10%

**Q.** What about the FDI (Trichoplusia ni [2]) of the same compound?
**A.** 75.7%

**Q.** What about the DC50 (Trichoplusia ni [3]) of the same compound?
**A.** 16.4 microg/cm2

**Q.** For `O=C1C(Cl)=C(Cl)C(=O)c2ccccc21` [Dichlon], which mortality at 10 µg/mL (Trichoplusia ni [1]) is on record?
**A.** 8%

**Q.** What about the FDI (Trichoplusia ni [2]) of the same compound?
**A.** 39.8%

**Q.** `O=C1C(Br)=C(Br)C(=O)c2ccccc21` [2,3-Dibromo-1,4-naphthoquinone] was tested. Which mortality at 10 µg/mL (Trichoplusia ni [1]) did it give?
**A.** 10%

**Q.** And the FDI (Trichoplusia ni [2])?
**A.** 100%

**Q.** And the DC50 (Trichoplusia ni [3])?
**A.** 26.4 microg/cm2

**Q.** How did the mortality at 10 µg/mL (Trichoplusia ni [1]) turn out when `O=C1C=CC(=O)c2c(O)cccc21` [JUGLONE] was run?
**A.** 5%

**Q.** What about the FDI (Trichoplusia ni [2]) of the same compound?
**A.** 100%

**Q.** What about the Activity (Trichoplusia ni [4]) of the same compound?
**A.** 8.1 mg

**Q.** What about the DC50 (Trichoplusia ni [3]) of the same compound?
**A.** 2.1 microg/cm2

**Q.** And the Activity (Trichoplusia ni [5])?
**A.** 1.7 cm2
